Columns and labels:
barnyardgrass = assay: Test C preemergence; assay type: in vivo, Echinochloa crus-galli; settings: for Barnyardgrass plant response rating / Plant response rating, Barnyardgrass: preemergence; for Plant response rating, Barnyardgrass: scale 0 to 100, 0 = no effect, 100 = complete control
Description: (§1) Seeds of plant species selected from blackgrass (Alopecurus myosuroides), ryegrass, Italian (Italian ryegrass, Lolium multiflorum), wheat (winter wheat, Triticum aestivum), galium (catchweed bedstraw, Galium aparine), corn (Zea mays), crabgrass, large (large crabgrass, Digitaria sanguinalis), foxtail, giant (giant foxtail, Setaria faberii), johnsongrass (Sorghum halepense), lambsquarters (Chenopodium album), morningglory (Ipomoea coccinea), nutsedge, yellow (yellow nutsedge, Cyperus esculentus), pigweed (redroot pigweed, Amaranthus retroflexus), ragweed (common ragweed, Ambrosia elation), soybean (Glycine max), barnyardgrass (Echinochloa crus-galli), oilseed rape (Brassica napus), waterhemp (common waterhemp, Amaranthus rudis), oat, wild (wild oat, Avena fatua), kochia (Kochia scoparia), Surinam grass (Brachiaria decumbens), foxtail, green (green foxtail, Setaria viridis), goosegrass (Eleusine indica), bromegrass, downy (downy bromegrass, Bromus tectorum), nightshade (eastern black nightshade, Solanum ptycanthum), cocklebur (common cocklebur, Xanthium strumarium), cupgrass, woolly (woolly cupgrass, Eriochloa villosa), bermudagrass (Cynodon dactylon), sunflower, (common oilseed sunflower, Helianthus annuus), Russian thistle (Salsola kali), and velvetleaf (Abutilon theophrasti) were planted into a blend of loam soil and sand and treated preemergence with test chemicals formulated in a non-phytotoxic solvent mixture which included a surfactant.
(§2) At the same time, plants selected from these crop and weed species and also chickweed (common chickweed, Stellaria media), canarygrass (littleseed canarygrass, Phalaris minor), and deadnettle (henbit deadnettle, Lamium amplexicaule), were planted in pots containing Redi-Earth® planting medium (Scotts Company, 14111 Scottslawn Road, Marysville, Ohio 43041) comprising spaghnum peat moss, vermiculite, wetting agent and starter nutrients and treated with postemergence applications of test chemicals formulated in the same manner. Plants ranged in height from 2 to 18 cm (1- to 4-leaf stage) for postemergence treatments. Treated plants and controls were maintained in a greenhouse for 13 to 15 days, after which time all species were compared to controls and visually evaluated. Plant response ratings, summarized in Table C, are based on a scale of 0 to 100 where 0 is no effect and 100 is complete control. A dash (-) response means no test result.

lambsquarters = assay: Test C preemergence; assay type: in vivo, Chenopodium album
Description: as §1, §2

nutsedge, yellow = assay: Test C preemergence; assay type: in vivo, Cyperus esculentus; settings: for Nutsedge, Yellow plant response rating / Plant response rating, Nutsedge, Yellow: preemergence; for Plant response rating, Nutsedge, Yellow: scale 0 to 100, 0 = no effect, 100 = complete control
Description: as §1, §2

foxtail, giant [1] = assay: Test A postemergence; assay type: in vivo, Setaria faberii
Method in brief: (§3)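 Growth medium: loam soil blended with sand. Preemergence treatment used a directed soil spray right after planting; postemergence treatment targeted seedlings at one to two leaves (2–10 cm height). Response was judged by eye relative to untreated plants about 10 days later on a 0–100 control scale.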

waterhemp = assay: Test C preemergence; assay type: in vivo, Amaranthus rudis; settings: for Waterhemp plant response rating / Plant response rating, Waterhemp: preemergence; for Plant response rating, Waterhemp: scale 0 to 100, 0 = no effect, 100 = complete control
Description: as §1, §2

rice = assay: Test B flood; assay type: in vivo, Oryza sativa; settings: 250 g ai/ha, visual rating on 0 to 100 scale (0 no effect, 100 complete control), 13 to 15 days
Method in brief: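 2-leaf plants; pots flooded 3 cm over soil; compound added to paddy water, depth kept constant. Greenhouse 13–15 d. Visual rating vs controls, 0–100 scale (100 = complete control); dash = no result.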

foxtail, giant [2] = assay: Test A preemergence; assay type: in vivo, Setaria faberii; settings: preemergence; for Foxtail, Giant plant response rating (0 to 100 scale): visual injury approx. 10 days after treatment
Method in brief: as §3

crabgrass, large = assay: Test A preemergence; assay type: in vivo, Digitaria sanguinalis; settings: preemergence; for Crabgrass, Large plant response rating (0 to 100 scale): visual injury approx. 10 days after treatment
Method in brief: as §3

velvetleaf = assay: Test A preemergence; assay type: in vivo, Abutilon theophrasti; settings: preemergence; for Velvetleaf plant response rating (0 to 100 scale): visual injury approx. 10 days after treatment
Method in brief: as §3

morningglory = assay: Test A postemergence; assay type: in vivo, Ipomoea spp.
Method in brief: as §3

[3] = 62 g ai/ha, scale 0 to 100 (0 no effect, 100 complete control), 13 to 15 days
[4] = 125 g ai/ha, scale 0 to 100, 0 is no effect, 100 is complete control
[5] = preemergence, 31 g ai/ha, visual rating, scale 0 to 100 (0 no effect, 100 complete control), 13 to 15 days
[6] = preemergence, 62 g ai/ha, scale 0 to 100 (0 no effect, 100 complete control), 13 to 15 days
[7] = 31 g ai/ha, visual rating, scale 0 to 100 (0 no effect, 100 complete control), 13 to 15 days
[8] = Postemergence, 500 g ai/ha, 0 to 100 scale (0 no effect, 100 complete control)
[9] = postemergence, 125 g ai/ha, about 10 days, visual rating on 0 to 100 scale (0 no effect, 100 complete control)
[10] = 125 g ai/ha, visual injury, 0 to 100 scale, approx. 10 days
[11] = 500 g ai/ha, visual injury after approx. 10 days, 0 to 100 scale (0 no effect, 100 complete control)
[12] = 250 g ai/ha, scale 0 to 100, 0 is no effect, 100 is complete control

Compound	Barnyardgrass plant response rating (barnyardgrass; [3])	Nutsedge, Yellow plant response rating (nutsedge, yellow; [7])	Nutsedge, Yellow plant response rating (nutsedge, yellow; [3])	Foxtail, Giant plant response rating (foxtail, giant [1]; [8])	Foxtail, Giant plant response rating (foxtail, giant [1]; [9])	Waterhemp plant response rating (waterhemp; [7])	Waterhemp plant response rating (waterhemp; [3])	Plant response rating, Rice (rice)	Foxtail, Giant plant response rating (foxtail, giant [2]; [11])	Barnyardgrass plant response rating (barnyardgrass; [7])	Plant response rating, Barnyardgrass (barnyardgrass; 125 g ai/ha, 13 to 15 days)	Barnyardgrass plant response rating (barnyardgrass; [12])	Crabgrass, Large plant response rating (crabgrass, large; [11])	Plant response rating, Nutsedge, Yellow (nutsedge, yellow; 125 g ai/ha, 13 to 15 days)	Nutsedge, Yellow plant response rating (nutsedge, yellow; [12])	Velvetleaf plant response rating (velvetleaf; [11])	Plant response rating, Waterhemp (waterhemp; 125 g ai/ha, 13 to 15 days)	Waterhemp plant response rating (waterhemp; [12])	Morningglory plant response rating (morningglory; [8])	Morningglory plant response rating (morningglory; [9])	other results
CCONC(=O)c1cc(CC)n(Cc2cc(C(F)(F)F)no2)n1 [Compound 125]	50	0	5	90	30	65	65	10	100												Plant response rating (scale of 0 to 100), Barnyardgrass (barnyardgrass; Preemergence, 250 g ai/ha): 100; Barnyardgrass plant response rating (barnyardgrass; 31 g ai/ha, scale 0 to 100 (0 no effect, 100 complete control), 13 to 15 days): 5; Barnyardgrass plant response rating (barnyardgrass; [4]): 80; Plant response rating (scale of 0 to 100), Lambsquarters (lambsquarters; Preemergence, 250 g ai/ha): 100; Lambsquarters plant response rating (lambsquarters; [5]): 15; Lambsquarters plant response rating (lambsquarters; [6]): 35; Lambsquarters plant response rating (lambsquarters; preemergence, 125 g ai/ha, scale 0 to 100, 0 is no effect, 100 is complete control): 75; Plant response rating (scale of 0 to 100), Nutsedge, Yellow (nutsedge, yellow; Preemergence, 250 g ai/ha): 55; Nutsedge, Yellow plant response rating (nutsedge, yellow; [4]): 15; Plant response rating (scale of 0 to 100), Waterhemp (waterhemp; Preemergence, 250 g ai/ha): 90; Waterhemp plant response rating (waterhemp; [4]): 85; Foxtail, Giant plant response rating (foxtail, giant [2]; [10]): 80
O=C(NCC(F)(F)F)c1cc(CCCl)n(Cc2ccnc(C(F)(F)F)c2)n1 [Compound 143]	100	30	40	90	90	98	98	25	100	75	100	100	100	80	90	100	100	100	100	40	Crabgrass, Large plant response rating (crabgrass, large; [10]): 100; Velvetleaf plant response rating (velvetleaf; [10]): 50; Foxtail, Giant plant response rating (foxtail, giant [2]; [10]): 100
CCCNC(=O)c1cc(CCCl)n(Cc2ccnc(C(F)(F)F)c2)n1 [Compound 145]		10	75	90	90	98	100	25	100	95	100	100	100	60	90	80	100	100	100	80	Crabgrass, Large plant response rating (0 to 100 scale) (crabgrass, large; 125 g ai/ha): 100; Velvetleaf plant response rating (0 to 100 scale) (velvetleaf; 125 g ai/ha): 50; Foxtail, Giant plant response rating (0 to 100 scale) (foxtail, giant [2]; 125 g ai/ha): 100
CCNC(=O)c1cc(CCCl)n(Cc2ccnc(C(F)(F)F)c2)n1 [Compound 179]	98	10	15	90	90	100	100	0	100	60	100	100	100	75	85	100	100	100	100	60	Crabgrass, Large plant response rating (0 to 100 scale) (crabgrass, large; 125 g ai/ha): 100; Lambsquarters plant response rating (lambsquarters; [5]): 90; Lambsquarters plant response rating (lambsquarters; [6]): 100; Plant response rating, Lambsquarters (lambsquarters; preemergence, 125 g ai/ha, 13 to 15 days, scale 0 to 100, 0 = no effect, 100 = complete control): 100; Lambsquarters plant response rating (lambsquarters; preemergence, 250 g ai/ha, scale 0 to 100, 0 is no effect, 100 is complete control): 100; Velvetleaf plant response rating (0 to 100 scale) (velvetleaf; 125 g ai/ha): 50; Foxtail, Giant plant response rating (0 to 100 scale) (foxtail, giant [2]; 125 g ai/ha): 100
CCONC(=O)c1cc(OCC)n(Cc2ccnc(C(F)(F)F)c2)n1 [Compound 195]	85	20	85	100	80		100	10	90	60	100	100	100	85	95	100	100	100	100		Crabgrass, Large plant response rating (0 to 100 scale) (crabgrass, large; 125 g ai/ha): 100; Velvetleaf plant response rating (0 to 100 scale) (velvetleaf; 125 g ai/ha): 80; Morningglory plant response rating (morningglory; Postemergence, 125 g ai/ha, 0 to 100 scale, 0 no effect, 100 complete control): 70; Foxtail, Giant plant response rating (0 to 100 scale) (foxtail, giant [2]; 125 g ai/ha): 90

— US20150105252A1, “SUBSTITUTED PYRAZOLES AS HERBICIDES” (E I DU PONT DE NEMOURS AND COMPANY, priority 2013, published 2015)
